The text below walks through data of patent US20060252807A1, “Novel ortho-terphenyl inhibitors of p38 kinase and methods of treating inflammatory disorders” (Kalypsys, Inc., priority 2005, published 2006).

In the test the target is T1, active p38 alpha enzyme (Upstate Biotechnology) (Homo sapiens, UniProt Q16539).
T1 construct: purchased Upstate Biotechnology
T1 sequence (Q16539 whole entry): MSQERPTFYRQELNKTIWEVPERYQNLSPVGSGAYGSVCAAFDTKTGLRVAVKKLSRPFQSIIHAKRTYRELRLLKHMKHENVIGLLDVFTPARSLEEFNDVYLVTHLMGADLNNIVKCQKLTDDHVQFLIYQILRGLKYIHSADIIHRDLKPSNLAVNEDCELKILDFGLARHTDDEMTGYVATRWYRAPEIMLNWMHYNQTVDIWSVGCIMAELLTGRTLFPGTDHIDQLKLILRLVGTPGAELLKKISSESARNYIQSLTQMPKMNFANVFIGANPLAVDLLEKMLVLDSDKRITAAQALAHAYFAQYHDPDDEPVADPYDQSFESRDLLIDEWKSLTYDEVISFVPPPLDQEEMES
Put plainly: p38α biochemical assay (ATP turnover, luminescent detection, Cambrex PKlight). The note with it: p38α biochemical assay, Table 1 Biological Activity. Here is the method:
The p38α biochemical assay employed is based on measurement of total ATP turnover following enzyme incubation with substrate in the presence of ATP with the use of a luminescent detection reagent (Cambrex PKlight). The assays were performed in 1536-well white opaque plates.
The final volume was 7.5005 μL as prepared prepared from the addition of 5 ul of kinase reaction (p38 alpah+MapkapK2+ATP) with 0.0005 μL compound dissolved in DMSO, and 2.5 ul of the detection reagent. Assay buffer contains the following reagents to give final concentration in the assay: 200 mM Tris, 100 mM MgCl2, 1.5 mM EGTA, 4 mM CaCl2, 20 mM MOPS, 1 mM EDTA, 1% glycerol, 0.1% B-Mecaptoethanol, and 1 mg/ml BSA. Test compounds are pinned using proprietary pintool technology (Kalypsys, Inc) and delivered as […] amounts into the 5 ul mixture of active p38 alpha enzyme (Upstate Biotechnology) and MapkapK2 (Upstate Biotechnology) whole protein as a substrate for phosphorylation in the presence of 1.4 uM final concentration ATP. Reactions are incubated at 30C for 2 hours and detection reagent is added in 2.5 ul/well amounts. Assay is read using a Perkin Elmer Viewlux.
Turning to `CC(=O)NCc1nc(-c2ccc(F)cc2)c(-c2nc(C(=O)NC(C)C)cs2)[nH]1` [Example 85, 2-|2-(Acetylamino-methyl)-5-(4-fluoro-phenyl)-3H-imidazol-4-yl|-thiazole-4-carboxylic acid isopropylamide], the IC50 – broadly, the concentration that gives 50% inhibition – is at most 1000 nM.

`CC(C)NC(=O)c1csc(-c2c(-c3ccc(F)cc3)ncn2C)n1` [Example 86, 2-|5-(4-Fluoro-phenyl)-3-methyl-3H-imidazol-4-yl|-thiazole-4-carboxylic acid isopropylamide] registered an IC50 of at most 1000 nM. For `C#CCNC(=O)c1csc(-c2c(-c3ccc(F)cc3)ncn2C)n1` [Example 87, 2-|5-(4-Fluoro-phenyl)-3-methyl-3H-imidazol-4-yl|-thiazole-4-carboxylic acid prop-2-ynylamide], the IC50 was at most 1000 nM.

On to `CC(C)NC(=O)c1csc(-c2c(-c3ccc(F)cc3)ncn2C2CCN(Cc3ccccc3)CC2)n1` [Example 88, 2-|3-(1-Benzyl-piperidin-4-yl)-5-(4-fluoro-phenyl)-3H-imidazol-4-yl|-thiazole-4-carboxylic acid isopropylamide], for which the IC50 was over 1000 nM. Molecule `C#CCNC(=O)c1csc(-c2c(-c3ccc(F)cc3)ncn2C2CCN(Cc3ccccc3)CC2)n1` [Example 89, 2-|3-(1-Benzyl-piperidin-4-yl)-5-(4-fluoro-phenyl)-3H-imidazol-4-yl|-thiazole-4-carboxylic acid prop-2-ynylamide] had a half-maximal inhibitory concentration (IC50) of over 1000 nM. `CC(C)NC(=O)c1csc(-c2c(-c3ccc(F)cc3)ncn2C2CCN(C(=O)OC(C)(C)C)CC2)n1` [Example 90, 4-|4-(4-Fluoro-phenyl)-5-(4-isopropylcarbamoyl-thiazol-2-yl)-imidazol-1-yl|-piperidine-1-carboxylic acid tert-butyl ester] came in with a 50% inhibitory concentration (IC50) of over 1000 nM. Take `C#CCNC(=O)c1csc(-c2c(-c3ccc(F)cc3)ncn2C2CCNCC2)n1` [Example 92, 2-|5-(4-Fluoro-phenyl)-3-piperidin-4-yl-3H-imidazol-4-yl|-thiazole-4-carboxylic acid prop-2-ynylamide]: the IC50 is at most 1000 nM.

Turning to `C#CCNC(=O)c1csc(-c2c(-c3ccc(F)cc3)ncn2C2CCN(C(=O)CO)CC2)n1` [Example 94, 2-{5-(4-Fluoro-phenyl)-3-|1-(2-hydroxy-acetyl)-piperidin-4-yl|-3H-imidazol-4-yl}-thiazole-4-carboxylic acid prop-2-ynylamide], the IC50 was at most 1000 nM. The molecule `O=C(O)c1csc(-c2c(-c3ccc(F)cc3)ncn2C2CCNCC2)n1` [Example 95, 2-|5-(4-Fluoro-phenyl)-3-piperidin-4-yl-3H-imidazol-4-yl|-thiazole-4-carboxylic acid] gave an IC50 of over 1000 nM. To `CC(C)NC(=O)c1csc(-c2[nH]c(N)nc2-c2ccc(F)cc2)n1` [Example 96, 2-|2-Amino-5-(4-fluoro-phenyl)-3H-imidazol-4-yl|-thiazole-4-carboxylic acid isopropylamide] belongs at most 1000 nM; to `CC(C)NC(=O)c1csc(-c2c(-c3ccc(F)cc3)nc3ncccn23)n1` [Example 97, 2-|2-(4-Fluoro-phenyl)-imidazo|1,2-a|pyrimidin-3-yl|-thiazole-4-carboxylic acid isopropylamide], over 1000 nM. As to `CC(C)NC(=O)c1csc(-c2oc(CN)nc2-c2ccc(F)cc2)n1` [Example 98], the IC50 is over 1000 nM.

For `CC(C)NC(=O)c1csc(-c2oc(CNC(=O)C=O)nc2-c2ccc(F)cc2)n1` [Example 99], the IC50 was over 1000 nM. `CC(C)NC(=O)c1csc(-c2oc(CNC(=O)CC#N)nc2-c2ccc(F)cc2)n1` [Example 100]: the half-maximal inhibitory concentration (IC50) was at most 1000 nM. To `CC(C)NC(=O)c1csc(-c2oc(CNC(=O)C(C)O)nc2-c2ccc(F)cc2)n1` (stereo not shown) [Example 101] belongs at most 1000 nM. Turning to `CCC(=O)C(=O)NCc1nc(-c2ccc(F)cc2)c(-c2nc(C(=O)NC(C)C)cs2)o1` [Example 102], the concentration for half-maximal inhibition (IC50) was at most 1000 nM.

`CC(C)NC(=O)c1csc(-c2oc(CNC(=O)C(C)(C)C)nc2-c2ccc(F)cc2)n1` [Example 103] displayed a half-maximal inhibitory concentration (IC50) of at most 1000 nM.

Take `CC(C)CC(=O)NCc1nc(-c2ccc(F)cc2)c(-c2nc(C(=O)NC(C)C)cs2)o1` [Example 104]: the IC50 was at most 1000 nM. As for `CC(C)NC(=O)c1csc(-c2oc(CNC(=O)c3cnc[nH]3)nc2-c2ccc(F)cc2)n1` [Example 105], the figure is at most 1000 nM; as for `CC(C)NC(=O)c1csc(-c2oc(CNC(=O)c3ncc[nH]3)nc2-c2ccc(F)cc2)n1` [Example 106], at most 1000 nM. As for `CC(C)NC(=O)c1csc(-c2oc(CNC(=O)C3=CCCC3)nc2-c2ccc(F)cc2)n1` [Example 107], the IC50 is over 1000 nM.

Consider `CC(C)NC(=O)c1csc(-c2oc(CNC(=O)C(F)(F)F)nc2-c2ccc(F)cc2)n1` [Example 108], for which the concentration for half-maximal inhibition (IC50) is at most 1000 nM.

`CC(C)NC(=O)c1csc(-c2oc(CNC(=O)C3CCCO3)nc2-c2ccc(F)cc2)n1` (stereo not shown) [Example 109] displayed a 50% inhibitory concentration (IC50) of at most 1000 nM. As to `CC(=O)NCC(=O)NCc1nc(-c2ccc(F)cc2)c(-c2nc(C(=O)NC(C)C)cs2)o1` [Example 110], the IC50 was at most 1000 nM. As for `CC(C)NC(=O)c1csc(-c2oc(CNC(=O)c3ccccc3)nc2-c2ccc(F)cc2)n1` [Example 111], the figure is over 1000 nM. To `CC(C)NC(=O)c1csc(-c2oc(CNC(=O)c3cccnc3)nc2-c2ccc(F)cc2)n1` [Example 112] belongs at most 1000 nM; to `CC(C)NC(=O)c1csc(-c2oc(CNC(=O)c3ccncc3)nc2-c2ccc(F)cc2)n1` [Example 113], at most 1000 nM.

Molecule `CC(C)NC(=O)c1csc(-c2oc(CNC(=O)c3ccccn3)nc2-c2ccc(F)cc2)n1` [Example 114] yielded an IC50 of over 1000 nM.

As for `CC(C)NC(=O)c1csc(-c2oc(CNC(=O)C(O)CCl)nc2-c2ccc(F)cc2)n1` (stereo not shown) [Example 115], the IC50 is at most 1000 nM. Regarding `Cc1cc(C(=O)NCc2nc(-c3ccc(F)cc3)c(-c3nc(C(=O)NC(C)C)cs3)o2)n[nH]1` [Example 116], the IC50 was at most 1000 nM. `CC(C)NC(=O)c1csc(-c2oc(CNC(=O)c3cn(C)cn3)nc2-c2ccc(F)cc2)n1` [Example 117]: the half-maximal inhibitory concentration (IC50) was over 1000 nM. Molecule `CC(C)NC(=O)c1csc(-c2oc(CNC(=O)C3CCCCC3)nc2-c2ccc(F)cc2)n1` [Example 118] came in with an IC50 of at most 1000 nM. `CC(C)NC(=O)c1csc(-c2oc(CNC(=O)c3cscn3)nc2-c2ccc(F)cc2)n1` [Example 119] yielded an IC50 of at most 1000 nM.

In the case of `CCOC(=O)CC(=O)NCc1nc(-c2ccc(F)cc2)c(-c2nc(C(=O)NC(C)C)cs2)o1` [Example 120], the 50% inhibitory concentration (IC50) is at most 1000 nM. The molecule `Cc1cccc(C(=O)NCc2nc(-c3ccc(F)cc3)c(-c3nc(C(=O)NC(C)C)cs3)o2)c1` [Example 121] returned a half-inhibitory concentration (IC50) of over 1000 nM. Turning to `Cc1ccccc1C(=O)NCc1nc(-c2ccc(F)cc2)c(-c2nc(C(=O)NC(C)C)cs2)o1` [Example 122], the IC50 is over 1000 nM. Take `Cc1ccc(C(=O)NCc2nc(-c3ccc(F)cc3)c(-c3nc(C(=O)NC(C)C)cs3)o2)cc1` [Example 123]: the IC50 is over 1000 nM. As for `CC(C)NC(=O)c1csc(-c2oc(CNC(=O)c3cccc(O)c3)nc2-c2ccc(F)cc2)n1` [Example 124], the figure is at most 1000 nM; as for `CC(C)NC(=O)c1csc(-c2oc(CNC(=O)c3ccccc3O)nc2-c2ccc(F)cc2)n1` [Example 125], over 1000 nM. Molecule `CC(C)NC(=O)c1csc(-c2oc(CNC(=O)c3ccc(F)cc3)nc2-c2ccc(F)cc2)n1` [Example 126] had an IC50 of over 1000 nM.
